Measured values taken from US20230227442A1, “HETEROALKYL DIHYDROQUINOLINE SULFONAMIDE COMPOUNDS” (AMGEN INC., priority 2020, published 2023).

Columns and labels:
[1] = biological target: T1, Human Nav1.7 (Homo sapiens, UniProt Q15858); test: Ionworks Barracuda (IWB) automated patch clamp assay; type: cell-based; settings: population patch clamp, HEK cells, 4 min compound incubation at -20 mV; read-out: hNaV1.7 IWB-U IC50
T1 construct: expressed in transfected cells; host or cells: Spiking HEK cells (without Kir2.1 transfection)
T1 sequence (Q15858 whole entry): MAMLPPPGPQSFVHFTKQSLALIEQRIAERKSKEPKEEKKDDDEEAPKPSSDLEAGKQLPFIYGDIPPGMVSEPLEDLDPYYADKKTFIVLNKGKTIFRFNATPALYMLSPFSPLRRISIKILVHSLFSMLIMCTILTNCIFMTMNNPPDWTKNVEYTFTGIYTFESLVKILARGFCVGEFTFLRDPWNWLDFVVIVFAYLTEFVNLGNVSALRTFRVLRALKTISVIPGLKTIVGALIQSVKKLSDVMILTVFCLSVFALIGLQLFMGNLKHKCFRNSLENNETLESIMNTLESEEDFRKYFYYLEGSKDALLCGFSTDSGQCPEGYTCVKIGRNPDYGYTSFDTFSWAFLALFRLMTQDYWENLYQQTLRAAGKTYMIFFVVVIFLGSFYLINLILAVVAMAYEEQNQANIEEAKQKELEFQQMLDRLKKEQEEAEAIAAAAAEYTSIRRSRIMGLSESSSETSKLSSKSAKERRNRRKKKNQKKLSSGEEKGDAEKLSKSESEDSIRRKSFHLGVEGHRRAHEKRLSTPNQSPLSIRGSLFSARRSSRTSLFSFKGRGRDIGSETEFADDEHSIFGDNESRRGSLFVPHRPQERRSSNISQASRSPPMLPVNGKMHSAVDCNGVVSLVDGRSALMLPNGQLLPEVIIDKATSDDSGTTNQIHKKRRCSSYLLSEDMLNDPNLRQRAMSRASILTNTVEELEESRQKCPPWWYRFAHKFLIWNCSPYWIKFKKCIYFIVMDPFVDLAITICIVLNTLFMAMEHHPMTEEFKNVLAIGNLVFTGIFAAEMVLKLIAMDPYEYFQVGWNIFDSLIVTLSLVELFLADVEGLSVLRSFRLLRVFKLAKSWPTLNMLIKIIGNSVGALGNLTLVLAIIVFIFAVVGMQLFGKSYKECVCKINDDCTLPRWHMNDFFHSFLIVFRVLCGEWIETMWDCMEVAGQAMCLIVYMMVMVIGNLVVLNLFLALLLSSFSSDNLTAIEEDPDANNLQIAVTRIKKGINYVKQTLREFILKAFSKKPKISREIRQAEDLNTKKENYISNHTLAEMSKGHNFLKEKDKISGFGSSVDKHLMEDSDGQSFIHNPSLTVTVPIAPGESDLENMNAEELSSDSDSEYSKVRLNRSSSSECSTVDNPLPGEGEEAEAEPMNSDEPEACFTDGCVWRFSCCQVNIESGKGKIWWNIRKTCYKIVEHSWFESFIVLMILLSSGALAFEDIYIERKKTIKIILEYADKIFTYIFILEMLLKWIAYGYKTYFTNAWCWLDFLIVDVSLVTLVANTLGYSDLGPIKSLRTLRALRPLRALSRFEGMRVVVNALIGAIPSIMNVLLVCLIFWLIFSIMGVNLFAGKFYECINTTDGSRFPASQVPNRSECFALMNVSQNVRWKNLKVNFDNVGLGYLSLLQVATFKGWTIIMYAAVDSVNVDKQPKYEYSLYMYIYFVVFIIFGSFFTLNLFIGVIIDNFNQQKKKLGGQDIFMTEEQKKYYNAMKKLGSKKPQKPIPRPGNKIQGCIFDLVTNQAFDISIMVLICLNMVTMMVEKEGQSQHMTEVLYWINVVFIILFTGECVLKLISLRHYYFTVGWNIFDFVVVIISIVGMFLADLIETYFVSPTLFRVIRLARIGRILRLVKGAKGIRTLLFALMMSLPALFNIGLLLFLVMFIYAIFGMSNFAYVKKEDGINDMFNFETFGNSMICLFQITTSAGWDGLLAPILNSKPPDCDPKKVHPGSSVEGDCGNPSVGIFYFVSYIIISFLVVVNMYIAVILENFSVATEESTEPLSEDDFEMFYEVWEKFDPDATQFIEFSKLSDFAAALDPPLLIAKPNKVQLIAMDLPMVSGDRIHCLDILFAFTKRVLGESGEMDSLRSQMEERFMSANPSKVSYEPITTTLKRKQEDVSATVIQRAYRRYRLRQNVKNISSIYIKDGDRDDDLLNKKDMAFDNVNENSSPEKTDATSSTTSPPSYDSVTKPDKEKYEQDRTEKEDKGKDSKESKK
Experimental: Ionworks Barracuda Automated Patch Clamp Assay (Same Protocol for Both Human and Mouse)
Human Nav1.7 currents were recorded in population patch-clamp mode with the IWB automated electrophysiology system (Molecular Devices, LLC, Sunnyvale, Calif.). Spiking HEK cells (without Kir2.1 transfection) were cultured and prepared for recordings as previously described for IonWorks Quattro testing^1. The external solution consisted of the following (in mM): NaCl 140, KCl 5, CaCl2 2, MgCl2 1, HEPES 10, and glucose 11, pH 7.4, with N-methyl-D-glucamine at 320 mOsmol. The internal solution consisted of the following (in mM): KCl 70, KF 70, MgCl2 0.25, HEDTA 5, and HEPES 10, pH 7.25, with Nmethyl-D-glucamine, 300 mOsmol. From a holding potential of −110 mV, currents were elicited by a train of 26 depolarizations of 150 ms duration to −20 mV at a frequency of 5 Hz. Cells were then clamped to −20 mV for a period of 4 minutes in the presence of a single concentration of test compound. Following this compound incubation period, cells were clamped to −110 mV for three seconds to recover unbound channels and put through the same 26 pulse voltage protocol as above. Peak inward current during the 26th pulse to −20 mV in the presence of compound was divided by the peak inward current evoked by the 26th pulse to −20 mV in the absence of compound to determine percent inhibition. Concentration-response curves of percent inhibition as a function of concentration were generated to calculate IC50 values as described in Kornecook, T. J.; Yin, R.; Altmann, S.; et al. Pharmacologic Characterization of AMG8379, a Potent and Selective Small Molecule Sulfonamide Antagonist of the Voltage-Gated Sodium Channel NaV1. 7. J. Pharmacol. Exp. Ther. 2017, 362, 146-160.

[2] = test system: CYP3A4; test: Human CYP 3A4 induction assay (mRNA, cryopreserved human hepatocytes); type: in vitro ADME; settings: 72 hours, percent of control (POC); for CYP3A4 mRNA Induct Hu 2 uM POC: 2 uM test compound; for CYP3A4 mRNA Induct Hu 10 uM POC: 10 uM test compound
Experimental: Human CYP 3A4 Induction Assay
Cryopreserved human hepatocytes were seeded in 96-well collagen coated plates at 70,000 cells per well in hepatocyte plating media (HPM, final concentrations: lx Dulbecco's Modified Eagle's Medium, 0.1 μM dexamethasone, 10% fetal bovine serum, lx ITS, 1×PSG) followed by incubation at 37° C. under 5% CO2 and 90% relative humidity for 2 days to allow hepatocytes to form a confluent layer. On Day 3, hepatocytes were treated with either test compound or rifampin (20 μM, positive control for CYP3A induction) prepared in hepatocyte incubation media ((HIM, final concentrations: 1× William's Medium E, 0.1 μM dexamethasone, 1×ITS, 1×PSG). Treatment was performed for 72 hours with either 2 concentrations (2 μM or 10 μM) or a range of concentrations (0.001 μM to 100 μM) of the test compound to obtain full dose-response curve. Fresh media containing the relevant concentrations of the test compound was replaced every day until the samples were processed. After 72 hours of incubation, samples were processed for mRNA analysis using bDNA technology using manufacturer's instructions (Affymetrix, Fremont, Calif.). Cell viability was tested at the end of the experiment using MTT assay kit (Roche Diagnostics, Basel, Switzerland). Data was analyzed and presented as percent of control (POC) and Emax and EC50 obtained when appropriate according to guidance from Center for Drug Evaluation and Research (CDER), 2006, Guidance for Industry, Drug Interaction Studies—Study Design, Data Analysis, and Implications for Dosing and Labeling.
Cryopreserved human hepatocytes were seeded in 96-well collagen coated plates at 70,000 cells per well in hepatocyte plating media (HPM, final concentrations: lx Dulbecco's Modified Eagle's Medium, 0.1 μM dexamethasone, 10% fetal bovine serum, lx ITS, 1×PSG) followed by incubation at 37° C. under 5% CO2 and 90% relative humidity for 2 days to allow hepatocytes to form a confluent layer. On Day 3, hepatocytes were treated with either test compound or rifampin (20 μM, positive control for CYP3A induction) prepared in hepatocyte incubation media ((HIM, final concentrations: 1× William's Medium E, 0.1 μM dexamethasone, 1×ITS, 1×PSG). Treatment was performed for 72 hours with either 2 concentrations (2 μM or 10 μM) or a range of concentrations (0.001 μM to 100 μM) of the test compound to obtain full dose-response curve. Fresh media containing the relevant concentrations of the test compound was replaced every day until the samples were processed. After 72 hours of incubation, samples were processed for mRNA analysis using bDNA technology using manufacturer's instructions (Affymetrix, Fremont, Calif.). Cell viability was tested at the end of the experiment using MTT assay kit (Roche Diagnostics, Basel, Switzerland). Data was analyzed and presented as percent of control (POC) and Emax and EC50 obtained when appropriate, as described in Halladay, J. et al, 2012, An “all-inclusive” 96-well cytochrome P450 induction method: Measuring enzyme activity, mRNA levels, protein levels, and cytotoxicity from one well using cryopreserved human hepatocytes, Pharmacological and Toxicological Methods, 66:270-275.

Row | SMILES | IC50 [1] [µM] | CYP3A4 mRNA Induct Hu 2 uM POC [2] [%] | CYP3A4 mRNA Induct Hu 10 uM POC [2] [%]
1 | COc1cc(O[C@@H](C)C(F)(F)F)c(F)cc1-n1c(=O)ccc2cc(S(=O)(=O)Nc3ccon3)ccc21 (atropisomer, axis not shown; (P)) [Example 18, (P)-(S)-1-(5-fluoro-2-methoxy-4-((1,1,1-trifluoropropan-2-yl)oxy)phenyl)-N-(isoxazol-3-yl)-2-oxo-1,2-dihydroquinoline-6-sulfonamide] | 0.027 | 2.6 | 9.5
2 | COc1cc(SC(F)(F)F)c(F)cc1-n1c(=O)ccc2cc(S(=O)(=O)Nc3ncccn3)c(F)cc21 (atropisomer, axis not shown; (P)) [Example 19, (P)-7-fluoro-1-(5-fluoro-2-methoxy-4-((trifluoromethyl)thio)phenyl)-2-oxo-N-(pyrimidin-2-yl)-1,2-dihydroquinoline-6-sulfonamide] | 0.029 | 17.4 | 49.2
3 | COc1cc(OCCC(F)(F)F)c(F)cc1-n1c(=O)ccc2cc(S(=O)(=O)Nc3ccon3)ccc21 (atropisomer, axis not shown; (P)) [Example 20, (P)-1-(5-fluoro-2-methoxy-4-(3,3,3-trifluoropropoxy)phenyl)-N-(isoxazol-3-yl)-2-oxo-1,2-dihydroquinoline-6-sulfonamide] | 0.03 | 10.8 | 29.6
4 | COc1cc(O[C@H](C)C(F)(F)F)c(F)cc1-n1c(=O)ccc2cc(S(=O)(=O)Nc3ccon3)ccc21 (atropisomer, axis not shown; (P)) [Example 21, (P)-(R)-1-(5-fluoro-2-methoxy-4-((1,1,1-trifluoropropan-2-yl)oxy)phenyl)-N-(isoxazol-3-yl)-2-oxo-1,2-dihydroquinoline-6-sulfonamide] | 0.032 | 0.4 | 1.8
5 | COc1cc(OCCC(F)(F)F)c(F)cc1-n1c(=O)ccc2cc(S(=O)(=O)Nc3ccon3)c(F)cc21 (atropisomer, axis not shown; (P)) [Example 22, (P)-7-fluoro-1-(5-fluoro-2-methoxy-4-(3,3,3-trifluoropropoxy)phenyl)-N-(isoxazol-3-yl)-2-oxo-1,2-dihydroquinoline-6-sulfonamide] | 0.034 | 14.8 | 41.5
6 | COc1cc(SC(F)(F)F)ccc1-n1c(=O)ccc2cc(S(=O)(=O)Nc3ccon3)ccc21 (atropisomer, axis not shown; (P)) [Example 23] | 0.039 | 7.4 | 25.1
7 | COc1cc(O[C@@H](C)C(F)(F)F)c(F)cc1-n1c(=O)ccc2cc(S(=O)(=O)Nc3ncccn3)ccc21 (atropisomer, axis not shown; (P)) [Example 24, (P)-(S)-1-(5-fluoro-2-methoxy-4-((1,1,1-trifluoropropan-2-yl)oxy)phenyl)-2-oxo-N-(pyrimidin-2-yl)-1,2-dihydroquinoline-6-sulfonamide] | 0.068 | 0.8 | 1.2
8 | COc1cc(OCC(F)(F)F)c(F)cc1-n1c(=O)c(F)cc2cc(S(=O)(=O)Nc3ccon3)ccc21 (atropisomer, axis not shown; (P)) [Example 25, (P)-3-fluoro-1-(5-fluoro-2-methoxy-4-(2,2,2-trifluoroethoxy)phenyl)-N-(isoxazol-3-yl)-2-oxo-1,2-dihydroquinoline-6-sulfonamide] | 0.102 | 11.5 | 38.0
9 | COc1nc(SC(F)(F)F)c(F)cc1-n1c(=O)ccc2cc(S(=O)(=O)Nc3ccon3)ccc21 (atropisomer, axis not shown; (P)) [Example 26, (P)-1-(5-fluoro-2-methoxy-6-((trifluoromethyl)thio)pyridin-3-yl)-N-(isoxazol-3-yl)-2-oxo-1,2-dihydroquinoline-6-sulfonamide] | 0.185 | 5.7 | 25.6
10 | COc1cc(SC(F)(F)F)c(F)cc1-n1c(=O)cc(F)c2cc(S(=O)(=O)Nc3ccon3)ccc21 [Example 11, P-4-fluoro-1-(5-fluoro-2-methoxy-4-((trifluoromethyl)thio)phenyl)-N-(isoxazol-3-yl)-2-oxo-1,2-dihydroquinoline-6-sulfonamide] | 0.01 | 7.3 | 48.1
11 | COc1cc(SC(F)(F)F)c(C)cc1-n1c(=O)ccc2cc(S(=O)(=O)Nc3ccon3)ccc21 [Example 12, P-N-(isoxazol-3-yl)-1-(2-methoxy-5-methyl-4-((trifluoromethyl)thio)phenyl)-2-oxo-1,2-dihydroquinoline-6-sulfonamide] | 0.014 | 20.2 | 61.2
12 | COc1cc(O[C@H](C)C(F)(F)F)c(F)cc1-n1c(=O)ccc2cc(S(=O)(=O)Nc3ncccn3)ccc21 [Example 13, P-(R)-1-(5-fluoro-2-methoxy-4-((1,1,1-trifluoropropan-2-yl)oxy)phenyl)-2-oxo-N-(pyrimidin-2-yl)-1,2-dihydroquinoline-6-sulfonamide] | 0.021 | 7.0 | 35.3
13 | COc1cc(OCC(F)(F)F)c(F)cc1-n1c(=O)ccc2cc(S(=O)(=O)Nc3ccon3)c(F)cc21 [Example 14] | 0.023 | 3.6 | 21.4
